Reference: patent US9611277B2 (Janssen Pharmaceutica NV, priority 2013, dated 2017)

Experiments:
human orexin 1 receptor = human orexin 1 receptor (Homo sapiens, UniProt O43613); test: Human orexin 1 receptor radioligand binding; details: human orexin 1 receptor; averages of 2-20 runs; read-out: hOX1 Ki
Method in brief: (§1)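 Ki values derive from one-site competition IC50s corrected with the radioligand's predetermined Kd, triplicates per run, averaged over 2-20 runs. Cell homogenates (rat or human OX1R) compete against [^3H]-thiazolyl-oxadiazolyl-pyrrolidine methanone in PBS; 10 μM almorexant sets nonspecific binding; scintillation counting after washing.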

rat orexin 1 receptor = rat orexin 1 receptor (Rattus norvegicus, UniProt P56718); test: Rat orexin 1 receptor radioligand binding; details: rat orexin 1 receptor; averages of 2-20 runs; read-out: rOX1 Ki
Method in brief: as §1

human orexin 2 receptor = human orexin 2 receptor (Homo sapiens (Human), UniProt O43614); test: Human orexin 2 receptor radioligand binding; details: human orexin 2 receptor; averages of 2-20 runs; read-out: hOX2 Ki
Method in brief: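 Ki derived from one-site competition IC50 using predetermined Kd of [3H]-EMPA, triplicate points, 2-20 runs averaged. Binding done on homogenized HEK293 cells stably expressing human orexin 2 receptor, DMSO ≤0.1%, with 10 μM almorexant defining nonspecific binding; filtered, washed, scintillation counted.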

Sequence of human orexin 2 receptor (O43614 whole entry): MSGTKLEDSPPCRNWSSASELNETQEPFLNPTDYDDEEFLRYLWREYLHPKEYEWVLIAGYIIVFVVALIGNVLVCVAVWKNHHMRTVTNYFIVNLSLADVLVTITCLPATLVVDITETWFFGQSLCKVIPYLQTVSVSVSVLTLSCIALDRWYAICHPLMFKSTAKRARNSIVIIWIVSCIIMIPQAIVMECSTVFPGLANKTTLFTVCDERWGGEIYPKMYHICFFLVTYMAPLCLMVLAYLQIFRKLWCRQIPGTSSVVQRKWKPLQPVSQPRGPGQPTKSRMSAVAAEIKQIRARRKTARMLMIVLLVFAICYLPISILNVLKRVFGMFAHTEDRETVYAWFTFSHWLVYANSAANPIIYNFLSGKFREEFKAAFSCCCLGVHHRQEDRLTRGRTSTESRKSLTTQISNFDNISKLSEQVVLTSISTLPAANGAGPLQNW

Q: Which Ki (human orexin 1 receptor) does the source give for Cc1cnc(N[C@@H]2C[C@H]3C[C@@H]2N(C(=O)c2ccccc2-c2ncccn2)C3)cn1 [Example 220, ((1S,4S,6R)-6-((5-methylpyrazin-2-yl)amino)-2-azabicyclo[2.2.1]heptan-2-yl)(2-(pyrimidin-2-yl)phenyl)methanone] here?
A: Its Ki is 17 nM.

Q: And the Ki (rat orexin 1 receptor)?
A: Its Ki is 11 nM.

Q: And the Ki (human orexin 2 receptor)?
A: Its Ki is 284 nM.

Q: How did the Ki (human orexin 1 receptor) turn out when O=C(c1cccc(F)c1-n1nccn1)N1C[C@H]2C[C@@H](Nc3ncc(C(F)(F)F)cn3)[C@@H]1C2 [Example 223, (3-fluoro-2-(2H-1,2,3-triazol-2-yl)phenyl)((1S,4S,6R)-6-((5-(trifluoromethyl)pyrimidin-2-yl)amino)-2-azabicyclo[2.2.1]heptan-2-yl)methanone] was run?
A: Its Ki is 6 nM.

Q: And the Ki (rat orexin 1 receptor)?
A: The Ki was 11 nM.

Q: What about the Ki (human orexin 2 receptor) of the same compound?
A: The Ki was 619 nM.

Q: Which Ki (human orexin 1 receptor) does the source give for O=C(c1ccc(F)cc1-n1nccn1)N1C[C@H]2C[C@@H](Nc3ncc(C(F)(F)F)cn3)[C@@H]1C2 [Example 224, (4-fluoro-2-(2H-1,2,3-triazol-2-yl)phenyl)((1S,4S,6R)-6-((5-(trifluoromethyl)pyrimidin-2-yl)amino)-2-azabicyclo[2.2.1]heptan-2-yl)methanone] here?
A: Its Ki is 33 nM.

Q: What about the Ki (rat orexin 1 receptor) of the same compound?
A: The Ki was 37 nM.

Q: What about the Ki (human orexin 2 receptor) of the same compound?
A: Its Ki is 1900 nM.

Q: With O=C(c1cc(F)ccc1-n1nccn1)N1C[C@H]2C[C@@H](Nc3ncc(C(F)(F)F)cn3)[C@@H]1C2 [Example 225, (5-fluoro-2-(2H-1,2,3-triazol-2-yl)phenyl)((1S,4S,6R)-6-((5-(trifluoromethyl)pyrimidin-2-yl)amino)-2-azabicyclo[2.2.1]heptan-2-yl)methanone] as the compound, how does the Ki (human orexin 1 receptor) read?
A: The Ki was 16 nM.

Q: And the Ki (rat orexin 1 receptor)?
A: The Ki was 20 nM.

Q: And the Ki (human orexin 2 receptor)?
A: The Ki was 800 nM.

Q: For O=C(c1c(F)cccc1-n1nccn1)N1C[C@H]2C[C@@H](Nc3ncc(C(F)(F)F)cn3)[C@@H]1C2 [Example 226, (2-fluoro-6-(2H-1,2,3-triazol-2-yl)phenyl)((1S,4S,6R)-6-((5-(trifluoromethyl)pyrimidin-2-yl)amino)-2-azabicyclo[2.2.1]heptan-2-yl)methanone], which Ki (human orexin 1 receptor) is on record?
A: The Ki was 19 nM.

Q: And the Ki (rat orexin 1 receptor)?
A: Its Ki is 17 nM.

Q: What about the Ki (human orexin 2 receptor) of the same compound?
A: Its Ki is 874 nM.

Q: O=C(c1ccc(F)cc1-c1ncccn1)N1C[C@H]2C[C@@H](Nc3ncc(C(F)(F)F)cn3)[C@@H]1C2 [Example 227, (4-fluoro-2-(pyrimidin-2-yl)phenyl)((1S,4S,6R)-6-((5-(trifluoromethyl)pyrimidin-2-yl)amino)-2-azabicyclo[2.2.1]heptan-2-yl)methanone] was tested. Which Ki (human orexin 1 receptor) did it give?
A: The Ki was 13 nM.

Q: And the Ki (rat orexin 1 receptor)?
A: The Ki was 12 nM.

Q: And the Ki (human orexin 2 receptor)?
A: The Ki was 3100 nM.

Q: How did the Ki (human orexin 1 receptor) turn out when O=C(c1cc(F)ccc1-c1ncccn1)N1C[C@H]2C[C@@H](Nc3ncc(C(F)(F)F)cn3)[C@@H]1C2 [Example 228, (5-fluoro-2-(pyrimidin-2-yl)phenyl)((1S,4S,6R)-6-((5-(trifluoromethyl)pyrimidin-2-yl)amino)-2-azabicyclo[2.2.1]heptan-2-yl)methanone] was run?
A: The Ki was 9 nM.

Q: And the Ki (rat orexin 1 receptor)?
A: Its Ki is 11 nM.

Q: What about the Ki (human orexin 2 receptor) of the same compound?
A: The Ki was 544 nM.

Q: O=C(c1c(F)cccc1-c1ncccn1)N1C[C@H]2C[C@@H](Nc3ncc(C(F)(F)F)cn3)[C@@H]1C2 [Example 229, (2-fluoro-6-(pyrimidin-2-yl)phenyl)((1S,4S,6R)-6-((5-(trifluoromethyl)pyrimidin-2-yl)amino)-2-azabicyclo[2.2.1]heptan-2-yl)methanone] was tested. Which Ki (human orexin 1 receptor) did it give?
A: Its Ki is 11 nM.

Q: And the Ki (rat orexin 1 receptor)?
A: The Ki was 9 nM.

Q: What about the Ki (human orexin 2 receptor) of the same compound?
A: The Ki was 724 nM.

Q: Which results are given for O=C(c1ccccc1-c1ncccn1)N1C[C@H]2C[C@@H](Nc3ncc(C(F)(F)F)cn3)[C@@H]1C2 [Example 230, (2-(pyrimidin-2-yl)phenyl)((1S,4S,6R)-6-((5-(trifluoromethyl)pyrimidin-2-yl)amino)-2-azabicyclo[2.2.1]heptan-2-yl)methanone]?
A: Ki (human orexin 1 receptor): 4 nM; Ki (rat orexin 1 receptor): 4 nM; Ki (human orexin 2 receptor): 470 nM

Q: Which results are given for O=C(c1ccccc1-c1ncc(F)cn1)N1C[C@H]2C[C@@H](Nc3ncc(C(F)(F)F)cn3)[C@@H]1C2 [Example 231, (2-(5-fluoropyrimidin-2-yl)phenyl)((1S,4S,6R)-6-((5-(trifluoromethyl)pyrimidin-2-yl)amino)-2-azabicyclo[2.2.1]heptan-2-yl)methanone]?
A: Ki (human orexin 1 receptor): 12 nM; Ki (rat orexin 1 receptor): 9 nM; Ki (human orexin 2 receptor): 1300 nM

Q: What does the source list for O=C(c1c(F)cccc1-c1ncco1)N1C[C@H]2C[C@@H](Nc3ncc(C(F)(F)F)cn3)[C@@H]1C2 [Example 232, (2-fluoro-6-(oxazol-2-yl)phenyl)((1S,4S,6R)-6-((5-(trifluoromethyl)pyrimidin-2-yl)amino)-2-azabicyclo[2.2.1]heptan-2-yl)methanone]?
A: Ki (human orexin 1 receptor): 25 nM; Ki (rat orexin 1 receptor): 24 nM; Ki (human orexin 2 receptor): 1350 nM

Q: What does the source list for O=C(c1cccc(F)c1-n1nccn1)N1C[C@H]2C[C@@H](Nc3ncc(Cl)cn3)[C@@H]1C2 [Example 234, ((1S,4S,6R)-6-((5-chloropyrimidin-2-yl)amino)-2-azabicyclo[2.2.1]heptan-2-yl)(3-fluoro-2-(2H-1,2,3-triazol-2-yl)phenyl)methanone]?
A: Ki (human orexin 1 receptor): 12 nM; Ki (rat orexin 1 receptor): 17 nM; Ki (human orexin 2 receptor): 827 nM

Q: How did the Ki (human orexin 1 receptor) turn out when O=C(c1cc(F)ccc1-n1nccn1)N1C[C@H]2C[C@@H](Nc3ncc(Cl)cn3)[C@@H]1C2 [Example 235, ((1S,4S,6R)-6-((5-chloropyrimidin-2-yl)amino)-2-azabicyclo[2.2.1]heptan-2-yl)(5-fluoro-2-(2H-1,2,3-triazol-2-yl)phenyl)methanone] was run?
A: The Ki was 41 nM.

Q: And the Ki (rat orexin 1 receptor)?
A: The Ki was 36 nM.

Q: And the Ki (human orexin 2 receptor)?
A: The Ki was 1300 nM.

Q: Which results are given for O=C(c1cccc(F)c1-c1ncccn1)N1C[C@H]2C[C@@H](Nc3ncc(Cl)cn3)[C@@H]1C2 [Example 236, ((1S,4S,6R)-6-((5-chloropyrimidin-2-yl)amino)-2-azabicyclo[2.2.1]heptan-2-yl)(3-fluoro-2-(pyrimidin-2-yl)phenyl)methanone]?
A: Ki (human orexin 1 receptor): 9 nM; Ki (rat orexin 1 receptor): 10 nM; Ki (human orexin 2 receptor): 1020 nM

Q: How did the Ki (human orexin 1 receptor) turn out when O=C(c1ccc(F)cc1-c1ncccn1)N1C[C@H]2C[C@@H](Nc3ncc(Cl)cn3)[C@@H]1C2 [Example 237, ((1S,4S,6R)-6-((5-chloropyrimidin-2-yl)amino)-2-azabicyclo[2.2.1]heptan-2-yl)(4-fluoro-2-(pyrimidin-2-yl)phenyl)methanone] was run?
A: Its Ki is 13 nM.

Q: And the Ki (rat orexin 1 receptor)?
A: The Ki was 32 nM.

Q: And the Ki (human orexin 2 receptor)?
A: Its Ki is 1900 nM.

Q: For O=C(c1c(F)cccc1-c1ncccn1)N1C[C@H]2C[C@@H](Nc3ncc(Cl)cn3)[C@@H]1C2 [Example 239, ((1S,4S,6R)-6-((5-chloropyrimidin-2-yl)amino)-2-azabicyclo[2.2.1]heptan-2-yl)(2-fluoro-6-(pyrimidin-2-yl)phenyl)methanone], which Ki (human orexin 1 receptor) is on record?
A: Its Ki is 41 nM.

Q: What about the Ki (rat orexin 1 receptor) of the same compound?
A: Its Ki is 23 nM.

Q: And the Ki (human orexin 2 receptor)?
A: The Ki was 726 nM.

Q: O=C(c1ccccc1-c1ncccn1)N1C[C@H]2C[C@@H](Nc3ncc(Cl)cn3)[C@@H]1C2 [Example 240, ((1S,4S,6R)-6-((5-chloropyrimidin-2-yl)amino)-2-azabicyclo[2.2.1]heptan-2-yl)(2-(pyrimidin-2-yl)phenyl)methanone] was tested. Which Ki (human orexin 1 receptor) did it give?
A: The Ki was 12 nM.

Q: And the Ki (rat orexin 1 receptor)?
A: Its Ki is 17 nM.

Q: What about the Ki (human orexin 2 receptor) of the same compound?
A: The Ki was 831 nM.

Q: Which results are given for O=C(c1ccccc1-n1nccn1)N1C[C@H]2C[C@@H](Nc3ccc(C(F)(F)F)nn3)[C@@H]1C2 [Example 242, (2-(2H-1,2,3-triazol-2-yl)phenyl)((1S,4S,6R)-6-((6-(trifluoromethyl)pyridazin-3-yl)amino)-2-azabicyclo[2.2.1]heptan-2-yl)methanone]?
A: Ki (human orexin 1 receptor): 113 nM; Ki (rat orexin 1 receptor): 89 nM; Ki (human orexin 2 receptor): 2100 nM

Q: What does the source list for Cc1ccc(-n2nccn2)c(C(=O)N2C[C@H]3C[C@@H](Nc4ccc(C(F)(F)F)nn4)[C@@H]2C3)n1 [Example 243, (6-methyl-3-(2H-1,2,3-triazol-2-yl)pyridin-2-yl)((1S,4S,6R)-6-((6-(trifluoromethyl)pyridazin-3-yl)amino)-2-azabicyclo[2.2.1]heptan-2-yl)methanone]?
A: Ki (human orexin 1 receptor): 131 nM; Ki (rat orexin 1 receptor): 112 nM; Ki (human orexin 2 receptor): 1800 nM

Q: For Cc1ccc(-c2ncccn2)c(C(=O)N2C[C@H]3C[C@@H](Nc4ccc(C(F)(F)F)nn4)[C@@H]2C3)n1 [Example 244, (6-methyl-3-(pyrimidin-2-yl)pyridin-2-yl)((1S,4S,6R)-6-((6-(trifluoromethyl)pyridazin-3-yl)amino)-2-azabicyclo[2.2.1]heptan-2-yl)methanone], which Ki (human orexin 1 receptor) is on record?
A: Its Ki is 143 nM.

Q: What about the Ki (rat orexin 1 receptor) of the same compound?
A: The Ki was 114 nM.

Q: And the Ki (human orexin 2 receptor)?
A: The Ki was 1700 nM.

Q: For O=C(c1cccc(F)c1-c1ncccn1)N1C[C@H]2C[C@@H](Nc3ccc(C(F)(F)F)nn3)[C@@H]1C2 [Example 245, (3-fluoro-2-(pyrimidin-2-yl)phenyl)((1S,4S,6R)-6-((6-(trifluoromethyl)pyridazin-3-yl)amino)-2-azabicyclo[2.2.1]heptan-2-yl)methanone], which Ki (human orexin 1 receptor) is on record?
A: The Ki was 53 nM.

Q: And the Ki (rat orexin 1 receptor)?
A: Its Ki is 65 nM.

Q: And the Ki (human orexin 2 receptor)?
A: The Ki was 4300 nM.

Q: With O=C(c1ccccc1-n1nccn1)N1C[C@H]2C[C@@H](Nc3ccc(C(F)(F)F)nc3)[C@@H]1C2 [Example 246, (2-(2H-1,2,3-triazol-2-yl)phenyl)((1S,4S,6R)-6-((6-(trifluoromethyl)pyridin-3-yl)amino)-2-azabicyclo[2.2.1]heptan-2-yl)methanone] as the compound, how does the Ki (human orexin 1 receptor) read?
A: Its Ki is 155 nM.

Q: And the Ki (rat orexin 1 receptor)?
A: Its Ki is 194 nM.

Q: What about the Ki (human orexin 2 receptor) of the same compound?
A: The Ki was 843 nM.

Q: With O=C(c1cccc(F)c1-c1ncccn1)N1C[C@H]2C[C@@H](Nc3ccc(C(F)(F)F)nc3)[C@@H]1C2 [Example 247, (3-fluoro-2-(pyrimidin-2-yl)phenyl)((1S,4S,6R)-6-((6-(trifluoromethyl)pyridin-3-yl)amino)-2-azabicyclo[2.2.1]heptan-2-yl)methanone] as the compound, how does the Ki (human orexin 1 receptor) read?
A: The Ki was 31 nM.

Q: And the Ki (rat orexin 1 receptor)?
A: Its Ki is 26 nM.

Q: And the Ki (human orexin 2 receptor)?
A: The Ki was 939 nM.

Q: Which results are given for O=C(c1cc(F)ccc1-c1ncccn1)N1C[C@@H]2CC[C@H]1[C@H](Oc1ccc(C(F)(F)F)cn1)C2 [Example 260, (5-fluoro-2-(pyrimidin-2-yl)phenyl)((1S,4R,6R)-6-((5-(trifluoromethyl)pyridin-2-yl)oxy)-2-azabicyclo[2.2.2]octan-2-yl)methanone]?
A: Ki (human orexin 1 receptor): 10 nM; Ki (rat orexin 1 receptor): 11 nM; Ki (human orexin 2 receptor): 294 nM
